Results on 6 molecules are retold here after publication PMC6832649, “Sa12b Peptide from Solitary Wasp Inhibits ASIC Currents in Rat Dorsal Root Ganglion Neurons” (Toxins, 2019).

Entries after “also recorded” stand apart in the source; their conditions may differ. Where no end group is shown, it is not given here.

The conditions of data set [1]: pH not stated for this peptide; ref [37]; cited from earlier work. The text has this:
RFa-related peptides have an NH2 group which is positively charged at pH 5 to 8 [21]. The effects of Sh5b could be due to the positive charge given by its amine group. Other inhibitors of ASICs, such as the PhcrTx1 peptide, which at pH 7.4 has a net charge of +5.03, APETx2 (net charge = +2.00), and PcTx1 (net charge = +3) also have that particularity. Aminoglycosides are also positively-charged ASICs modulators.

For the next data set, the system named is hASIC3. The arrangement: method as in PMID 15044953. The following applies: ref [34]; cited from earlier work.
The next data set has as its system rASIC3. The arrangement: method as in PMID 15044953. The following applies: ref [34]; read-out: IC50, homomeric rASIC3; cited from earlier work.
Data set [2] concerns ASIC currents in rat dorsal root ganglion (DRG) neurons. As to the kind of experiment: ASIC currents in DRG neurons, whole-cell voltage clamp. It is filed as cell-based, Long-Evans CII rat (P7-P10). The procedure:
To study the effect of Sa12b and Sh5b on ASIC, DRG neurons were obtained from Long-Evans CII / ZV rats of 7 to 10 days of postnatal age, of either sex. Animals were provided by the laboratory animal facility ‘Claude Bernard’ of the Autonomous University of Puebla. The study was performed in accordance with the recommendations in the Guiding Principles in the Care and Use of Vertebrate Animals in Research and Training of the American Physiological Society, and with the regulations of the NOM-062-ZOO-1999 of the Mexican Ministry of Agriculture, Stockbreeding, Rural Development, Fishing and Food. The protocol was reviewed and approved by the Institutional Committee for Animal Care and Use (IACUC) of the Autonomous University of Puebla (VIEP-BUAP) on 17 July 2017. The ethical approval code is SOEE-UALVIEP-17-1. All efforts were made to minimize animal suffering and to reduce the number of animals used. DRG neurons were isolated and maintained in primary culture according to the methodology described previously. The dissection and cell culture were performed within a level I biosafety laminar flow hood (Nuaire, Plymouth, MN, USA). Rats were anesthetized with sevoflurane and sacrificed by decapitation. Subsequently, the rat was placed in prone position to make a longitudinal incision through the vertebral bodies removing the spinal cord. Dorsal root ganglia were isolated (approximately 12 to 18 per rat) using conventional dissection under a stereoscopic microscope (American Optical, Southbridge, MA, USA). Once extracted, DRG neurons were placed in a disposable sterile centrifuge tube (Corning, Corning, NY, USA), in which they were incubated for 30 min at 37 °C in Leibovitz L15 medium (L15) (Invitrogen, Waltham, MA, USA), added with 1.25 mg/mL of trypsin and 1.25 mg/mL of collagenase (both from Sigma-Aldrich, St. Louis, MO, USA) for an enzymatic dissociation.
After the enzymatic treatment, the ganglia were washed 3 times with 100% L15 medium; after each wash, the cells were subjected to mechanical dissociation using glass three-gauge Pasteur pipettes; between each wash, a cell pellet was formed using a centrifuge at 5000 rpm. After the third wash, once the cell pellet was formed, the supernatant was discarded, and the cell suspension was placed in a 35 mm culture dish (Corning) on 12 × 10 mm glass plates (Corning) previously treated with poly-D-lysine (Sigma-Aldrich, St. Louis, MO, USA).
Dissociated neurons were incubated for a period of time ranging from 2 to 8 h in a humidified atmosphere ([…], 5% CO2, at 37 °C) using a water-jacketed CO2 incubator (Nuaire, Plymouth, MN, USA) allowing for settlement and adhesion of isolated cells to the glass plates. The cells were cultured in modified L15 medium, supplemented with 10% fetal bovine serum (Gibco, Waltham, MA, USA), 100 IU penicillin (Lakeside, Hayward, CA USA), fungizone 2.5 μL/mL (Gibco), NaHCO3 15.7 mM (J.T. Baker, Radnor DE, USA) and 15.8 mM HEPES (Sigma-Aldrich, St. Louis, MO, USA).
After an incubation period of 2 to 8 h, the recording of ASIC currents in DRG neurons was performed. Cells were transferred to a recording chamber mounted in a phase-contrast inverted microscope (TMS, Nikon Co. Tokyo, Japan).
The recording chamber was constantly perfused with extracellular solution (Table 3). Recordings were performed in whole-cell voltage-clamp mode using an Axopatch 1D amplifier (Molecular Devices, Union City, CA, USA). Data collection and generation of commands for the perfusion change were carried out by the pClamp 9.2 (Molecular Devices) software in a 16-bit data acquisition system (Digidata 1320, Molecular Devices). […] The signals were digitized at 5 kHz. The series resistance was electronically compensated at 80%. Throughout the recording, access resistance and seal quality were monitored to ensure stable recording conditions.
Proton-gated currents were obtained with a holding potential of −60 mV. […]

A further data set relates to ASIC1b. The following applies: ref [9]; read-out: EC50, agonist of ASIC1b; cited from earlier work.
A further data set concerns ASIC1a. The following applies: ref [38]; cited from earlier work.
For another data set, the system named is ASIC currents. The following applies: 10 μM stated to be close to the EC50 of FMRFa; no reference given; cited from earlier work. The procedure: The peptide was initially tested at 10 μM, this concentration was used because it is close to the EC50 of FMRFa. With application of 10 µM Sa12b in preincubation form (20 s before and 5 s during acid pulse), Sa12b inhibited ASIC currents 92.7 ± 7.3% (p < 0.05 paired Student’s t-test, n = 5) (Figure 2A).

The target of data set [3] is Acid-Sensing Ion Channels (ASIC) of rat dorsal root ganglion neurons.
Data set [4] shares this target. The source holds these as a separate data set.
The mark [5] stands for this setting: Sh5b 100 nM, co-application, mean ± E.S., n = 5.
[6] abbreviates: Sh5b 100 nM, preincubation, mean ± E.S., n = 9.
The mark [7] stands for this setting: Sh5b 100 nM, preincubation, single recording, Figure 6A.
Where [8] appears, read: Sh5b 1 µM, preincubation, single recording, Figure 6B.
[9] abbreviates: Sh5b 3 µM, co-application, single recording, Figure 5A.
The mark [10] stands for this setting: Sh5b 10 µM, co-application, mean ± E.S., n = 9.
Setting [11] is: Sh5b 10 µM, co-application, single recording, Figure 5B.
Where [12] appears, read: Sh5b 10 µM, preincubation, mean ± E.S., n = 12.
[13] abbreviates: Sh5b 10 µM, preincubation, single recording, Figure 6C.
The mark [14] stands for this setting: Sh5b 30 µM, co-application, mean ± E.S., n = 6.
Where [15] appears, read: Sh5b 30 µM, co-application, single recording, Figure 5C.

The IC50 is the concentration at which inhibition is half-maximal. As a reminder, the EC50 is the concentration giving half of the maximal effect.

On to APETx2, for which the net charge entry in data set [1] was “+2.00”. Also, the values for the concentration for half-maximal inhibition (IC50) in the data set on hASIC3 and in the data set with rASIC3 were about 175 nM and 37 to 63 nM, respectively.

DVDHVFLRF-NH2 [Sh5b]: the “effect on analyzed parameters of ASIC current” value in data set [2] (Sh5b 100 nM, co-application, n = 5) is “no consistent concentration-dependent effects”. In data set [2] (setting [5]), the “% ISS change (increase 🡹)” value was “🡹 85 ± 74%”, the “% Ipeak change (decrease 🡻)” value is reported as “🡻2 ± 4%” and the “% Ƭdes change (decrease 🡻)” value was “🡻 1 ± 2%”. Further, the “effect on analyzed parameters” value in [2] (Sh5b 100 nM, preincubation, n = 9) was “no effect”. For the same molecule, in data set [2] (setting [6]), the “% ISS change (increase 🡹)” value is “🡹 53 ± 38%”, the “% Ipeak change (decrease 🡻)” value is “🡻0.5 ± 6%” and the “% Ƭdes change (increase 🡹)” value was “🡹 13 ± 15%”. Also, in [2] (setting [7]), the “change in Ƭdes” value was “no change”, the “increase of ISS” value is reported as 3% and the “increase of Ipeak” value came out at 1%. For the same molecule, in data set [2] (Sh5b 1 µM, preincubation, mean ± E.S., n = 5), the “% Ƭdes change (increase 🡹)” value is listed as “🡹 3 ± 5%”. Besides, in data set [2] (setting [8]), the “inhibition of ISS” value is listed as 5% and the “inhibition of Ipeak” value came to 1%. In data set [2] (Sh5b 3 µM, co-application, mean ± E.S., n = 12), the “% Ipeak change (decrease 🡻)” value is reported as “🡻6 ± 3%”. In data set [2] (setting [9]), the “increase of ISS” value is reported as 30% and the “reduction of Ipeak” value amounted to 9.6%. Further, the “overall change of Ipeak” value in data set [2] (Sh5b 10 µM, co-application, increase in some cells, decrease in others) is “non-significant”. Further, in [2] (setting [10]), the “% ISS change (increase 🡹)” value was “🡹 1 ± 11%” and the “% Ƭdes change (decrease 🡻)” value is given as “🡻 10 ± 5%”. Further, in [2] (Sh5b 10 µM, co-application, mean ± E.S., n = 9, non-significant), the “% Ipeak change (increase 🡹)” value is “🡹17 ± 15%”. In data set [2] (setting [11]), the “increase of ISS” value worked out at 14.6% and the “increase of Ipeak” value turned out to be 44.6%. For the same molecule, the “effect on studied parameters” value in [2] (Sh5b 10 µM, preincubation, n = 12) is “did not produced significant effects”. In [2] (setting [12]), the “% ISS change (decrease 🡻)” value is reported as “🡻 8 ± 15%”, the “% Ipeak change (decrease 🡻)” value is listed as “🡻11 ± 4%” and the “% Ƭdes change (decrease 🡻)” value is reported as “🡻 5 ± 4%”. Moreover, in data set [2] (setting [13]), the “change in Ƭdes” value is reported as “no change”, the “increase of ISS” value turned out to be 26% and the “inhibition of Ipeak” value is 18%. The ISS amplitude in data set [2] (Sh5b 30 µM, co-application, from 79 pA before peptide, single recording, Figure 5C) came to 159 pA. In data set [2] (setting [14]), the “% Ipeak change (decrease 🡻)” value is given as “🡻1 ± 6%” and the “% Ƭdes change (increase 🡹)” value is reported as “🡹 9 ± 5%”. In [2] (setting [15]), the “increase of ISS” value is reported as 102% and the “inhibition of Ipeak” value was found to be 3.8%. In [2] (Sh5b, both application protocols), the “overall effect on ASIC currents” value is “did not show consistent results having both excitatory and inhibitory effects on the maximum ASIC currents; also recorded: did not produce consistent, reproducible, effects”. For the same molecule, in data set [2] (Sh5b, co-application, 100 nM-30 µM), the “concentration dependence of effects on ASIC current” value is on record as “not dependent on concentration”. Also, in data set [2] (Sh5b, co-application, overall), the “effect on ISS/Ipeak relationship” value is listed as “tendency towards the increase” and the “effect on Ƭdes” value is reported as “did not show noticeable differences”. For the same molecule, the “effect on ISS component” value in data set [2] (Sh5b, overall, preincubation) is on record as “increased slightly”. Also, in data set [2] (Sh5b, preincubation, overall), the “effect on ISS/Ipeak relationship” value is given as “also increased”; the “effect on current peak” value is “tendency to inhibit the current peak”; the “effect on Ƭdes and integral of the current” value is “no consistent changes”. Moreover, in data set [2] (after 1 min washout), the “reversibility of effect on ASIC current” value is reported as “reversed by 1 min peptide washout”.

In the case of PcTx1, the net charge entry in data set [1] is on record as “+3”. In the data set on ASIC1b, the EC50 was about 100 nM. In addition, in the data set on ASIC1a, the 50% inhibitory concentration (IC50) was 1 nM.

On to “Phe-Met-Arg-Phe amide [FMRFa, abundant tetrapeptide in invertebrate nervous systems, neurotransmitter and neuromodulator]”, for which the EC50 in the data set with ASIC currents was about 10000 nM.

Regarding Sa12b peptide, in data set [3], the percent decrease of the ASIC I peak at pH 6.1, Sa12b by preincubation, 30 nM to 10 µM (highest at 1 µM), whole-cell voltage clamp of rat DRG neurons was 98 % I_(peak).

B1: Sh5b peptide (peptide)
peptide: DVDHVFLRF-NH2
With B1, the percent decrease of the ASIC I peak at pH 6.1, Sh5b by preincubation, 100 nM to 10 µM (largest at 10 µM; not significant), whole-cell voltage clamp of rat DRG neurons in data set [4] is 11 % I_(peak).
